For test [1], the target named is T1, GST tagged LXRalpha LBD (ligand binding domain) (Homo sapiens, UniProt Q13133).
T1 construct: purchased Invitrogen pv4655
T1 sequence (Q13133 209-447 limits assumed): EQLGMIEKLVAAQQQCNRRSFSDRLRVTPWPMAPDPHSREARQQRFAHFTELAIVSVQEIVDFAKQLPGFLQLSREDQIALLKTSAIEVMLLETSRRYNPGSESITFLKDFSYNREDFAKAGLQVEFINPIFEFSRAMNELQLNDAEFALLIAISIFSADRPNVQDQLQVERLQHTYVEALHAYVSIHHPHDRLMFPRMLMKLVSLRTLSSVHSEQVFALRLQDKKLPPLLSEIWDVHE
Nature of the test: LanthaScreen TR-FRET Liver X Receptor Coactivator Assay, LXR alpha-LBD (co-activator recruitment; IP and % Emax relative to T0901317). Particulars: for LXR alpha IP (nM) / EC50: Inflection Point of co-activator recruitment, LXR alpha-LBD, TR-FRET; for Emax: efficacy at max dose in relation to reference T0901317, LXR alpha-LBD, read-out: LXR alpha actiivty at max dose (%). In kind it is biochemical. In short, it runs like this: (§1)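 LXR LBD protein was added to test compounds, then a mix of fluorescein-labelled coactivator peptide and terbium anti-GST antibody. After incubation at room temperature, TR-FRET was read. Inflection point and Emax were derived relative to the reference dual agonist T0901317.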
On the technique in general: TR-FRET usually uses a lanthanide donor and a delayed reading to cut background.

The target in test [2] is T2, GST tagged LXRbeta LBD (ligand binding domain) (Homo sapiens, UniProt P55055).
T2 construct: purchased Invitrogen pv4658.pps
T2 sequence (P55055 222-460 limits assumed): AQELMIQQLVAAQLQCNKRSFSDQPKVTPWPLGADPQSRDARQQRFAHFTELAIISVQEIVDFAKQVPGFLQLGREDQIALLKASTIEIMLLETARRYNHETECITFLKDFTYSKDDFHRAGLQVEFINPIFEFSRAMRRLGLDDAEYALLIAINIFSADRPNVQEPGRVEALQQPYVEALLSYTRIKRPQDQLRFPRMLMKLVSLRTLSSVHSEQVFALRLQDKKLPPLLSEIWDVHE
Nature of the test: LanthaScreen TR-FRET Liver X Receptor Coactivator Assay, LXR beta-LBD (co-activator recruitment; IP and % Emax relative to T0901317). Particulars: for EC50: Inflection Point of co-activator recruitment, LXR beta-LBD, TR-FRET; for Emax: efficacy at max dose in relation to reference T0901317, LXR beta-LBD, read-out: LXR beta actiivty at max dose (%). In kind it is biochemical. In short, it runs like this:
as §1

One may read the EC50 as the concentration at which the effect is half-maximal. The low end stands for a more potent agent, the high end for a less potent agent. On to `COc1cccc([C@@](O)(C(=O)N(C)CCCC2CCN(c3ccc(C(=O)N4CC[C@@H](CO)C4)c(Cl)n3)CC2)C(F)(F)F)c1` [Example 2-7, (R)-N-(3-(1-(6-chloro-5-((R)-3-(hydroxymethyl)pyrrolidine-1-carbonyl)pyridin-2-yl)piperidin-4-yl)propyl)-3,3,3-trifluoro-2-hydroxy-2-(3-methoxyphenyl)-N-methylpropanamide], for which, in test [1], the “LXR alpha IP (nM)” value was “No IP” and the Emax was found to be 4%. In test [2], the EC50 was found to be 0.42 µM and the Emax amounted to 43%.

With `COc1cccc([C@@](O)(C(=O)N(C)CC[C@@H]2CC23CCN(c2ccc(C(=O)NC(C)C)c(Cl)c2)CC3)C(F)(F)F)c1` [Example 7-23, 2-chloro-N-isopropyl-4-((S)-1-(2-((R)-3,3,3-trifluoro-2-hydroxy-2-(3-methoxyphenyl)-N-methylpropanamido)ethyl)-6-azaspiro[2.5]octan-6-yl)benzamide], in test [1], the “LXR alpha IP (nM)” value was “No IP” and the Emax was found to be 7%. In test [2], the response was half-maximal at 2.07 µM (EC50) and the Emax was determined as 32%.

As to `COc1cccc([C@@](O)(C(=O)N(C)CC(C)CC2CCN(c3ccc(C(=O)N(C)C)c(Cl)n3)CC2)C(F)(F)F)c1` (single isomer, unassigned) [Example 3-2], in test [1], the “LXR alpha IP (nM)” value was “No IP” and the Emax is 0%. Also, in test [2], the 50% effective concentration (EC50) is 0.053 µM and the Emax was 81%.

For `CNC(=O)c1ccc(N2CCC3(CC2)C[C@@H]3CCN(C)C(=O)[C@](O)(c2cccc(OC)c2)C(F)(F)F)cc1Cl` [Example 7-8, 2-chloro-N-methyl-4-((R)-1-(2-((R)-3,3,3-trifluoro-2-hydroxy-2-(3-methoxyphenyl)-N-methylpropanamido)ethyl)-6-azaspiro[2.5]octan-6-yl)benzamide], in test [1], the concentration giving a half-maximal response (EC50) is 1.27 µM and the Emax is 33%. In test [2], the EC50 is 0.082 µM and the Emax amounted to 56%.

On to `CN(C)C(=O)c1ccc(N2CCC(CCCNC(=O)[C@](O)(c3cc(Cl)cc(Cl)c3)C(F)(F)F)CC2)nc1Cl` [Example 5-13, (R)-2-chloro-6-(4-(3-(2-(3,5-dichlorophenyl)-3,3,3-trifluoro-2-hydroxypropanamido)propyl)piperidin-1-yl)-N,N-dimethylnicotinamide], for which, in test [1], the “LXR alpha IP (nM)” value is given as “No IP” and the Emax worked out at 9%. In test [2], the EC50 came out at 0.187 µM and the Emax worked out at 54%.

Regarding `COc1cccc([C@@](O)(C(=O)N(C)CCC2CC3(CCN(c4ccc(C(=O)NC5CC5)c(Cl)n4)CC3)C2)C(F)(F)F)c1` [Example 13-3, 2-chloro-N-cyclopropyl-6-(2-(2-((R)-3,3,3-trifluoro-2-hydroxy-2-(3-methoxyphenyl)-N-methylpropanamido)ethyl)-7-azaspiro[3.5]nonan-7-yl)nicotinamide], in test [1], the “LXR alpha IP (nM)” value is “No IP” and the Emax turned out to be 1%. Moreover, in test [2], the EC50 amounted to 0.654 µM and the Emax amounted to 35%.

Take `COc1cccc([C@@](O)(C(=O)NCC[C@H]2CC23CCN(c2ccc(C(=O)N(C)C)c(Cl)c2)CC3)C(F)(F)F)c1` [Example 7-32, 2-chloro-N,N-dimethyl-4-((R)-1-(2-((R)-3,3,3-trifluoro-2-hydroxy-2-(3-methoxyphenyl)propanamido)ethyl)-6-azaspiro[2.5]octan-6-yl)benzamide]: in test [1], the “LXR alpha IP (nM)” value is “No IP” and the Emax stood at 17%. For the same compound, in test [2], the midpoint of the response, the EC50, lay at 0.284 µM and the Emax amounted to 69%.

Turning to `COc1cccc([C@@](O)(C(=O)N(C)CC[C@H]2CC23CCN(c2ccc(C(=O)N(C)C)c(Cl)n2)CC3)C(F)(F)F)c1` [Example 7-15, 2-chloro-N,N-dimethyl-6-((R)-1-(2-((R)-3,3,3-trifluoro-2-hydroxy-2-(3-methoxyphenyl)-N-methylpropanamido)ethyl)-6-azaspiro[2.5]octan-6-yl)nicotinamide], in test [1], the EC50 turned out to be 0.68 µM and the Emax stood at 37%. In addition, in test [2], a half-maximal response (EC50) required 0.012 µM and the Emax came to 58%.

As for `CN(C)C(=O)c1ccc(N2CCC(CCCN(C)C(=O)[C@](O)(c3cccc(OC(F)(F)F)c3)C(F)(F)F)CC2)nc1Cl` [Example 1-40, (R)-2-chloro-N,N-dimethyl-6-(4-(3-(3,3,3-trifluoro-2-hydroxy-N-methyl-2-(3-(trifluoromethoxy)phenyl)propanamido)propyl)piperidin-1-yl)nicotinamide], in test [1], the “LXR alpha IP (nM)” value is on record as “No IP” and the Emax is 0%. In test [2], the EC50 came out at 0.052 µM and the Emax came to 63%.

`COc1cccc([C@@](O)(C(=O)N(C)CCCC2CCN(c3cc(Cl)c(C(=O)N(C)C)cn3)CC2)C(F)(F)F)c1` [Example 2-21, (R)-4-chloro-N,N-dimethyl-6-(4-(3-(3,3,3-trifluoro-2-hydroxy-2-(3-methoxyphenyl)-N-methylpropanamido)propyl)piperidin-1-yl)nicotinamide]: in test [1], the EC50 amounted to 5.94 µM and the Emax was determined as 26%. Also, in test [2], the midpoint of the response, the EC50, lay at 1.91 µM and the Emax stood at 30%.

Take `COc1cccc([C@@](O)(C(=O)NCC[C@H]2CC23CCN(c2ccc(C(=O)N(C)C(C)C)c(Cl)c2)CC3)C(F)(F)F)c1` [Example 7-31, 2-chloro-N-isopropyl-N-methyl-4-((R)-1-(2-((R)-3,3,3-trifluoro-2-hydroxy-2-(3-methoxy-phenyl)propanamido)ethyl)-6-azaspiro[2.5]octan-6-yl)benzamide]: in test [1], the “LXR alpha IP (nM)” value is “No IP” and the Emax is 1%. Besides, in test [2], a half-maximal response (EC50) required 0.304 µM and the Emax is 49%.

For the compound `COc1cccc([C@@](O)(C(=O)N(C)CCCC2CCN(c3ncc(C(=O)N(C)C)cc3Cl)CC2)C(F)(F)F)c1` [Example 2-22, (R)-5-chloro-N,N-dimethyl-6-(4-(3-(3,3,3-trifluoro-2-hydroxy-2-(3-methoxyphenyl)-N-methylpropanamido)propyl)piperidin-1-yl)nicotinamide], in test [1], the “LXR alpha IP (nM)” value is reported as “No IP” and the Emax is 2%. In test [2], the EC50 came out at 1.12 µM and the Emax worked out at 32%.

Turning to `CN(C)C(=O)c1ccc(N2CCC3(CC2)C[C@H]3CCN(C)C(=O)[C@](O)(c2ccccc2)C(F)(F)F)cc1Cl` [Example 7-25, 2-chloro-N,N-dimethyl-4-((S)-1-(2-((R)-3,3,3-trifluoro-2-hydroxy-N-methyl-2-phenylpropanamido)ethyl)-6-azaspiro[2.5]octan-6-yl)benzamide], in test [1], it took 3.1 µM to reach a half-maximal effect (EC50) and the Emax amounted to 22%. Moreover, in test [2], the response was half-maximal at 0.473 µM (EC50) and the Emax amounted to 46%.

`COc1cccc([C@@](O)(C(=O)N(C)CC[C@H]2CC23CCN(c2ccc(C(=O)N(C)C4CC4)c(Cl)n2)CC3)C(F)(F)F)c1` [Example 7-18, 2-chloro-N-cyclopropyl-N-methyl-6-((R)-1-(2-((R)-3,3,3-trifluoro-2-hydroxy-2-(3-methoxyphenyl)-N-methylpropanamido)ethyl)-6-azaspiro[2.5]octan-6-yl)nicotinamide]: in test [1], the “LXR alpha IP (nM)” value is “No IP” and the Emax stood at 16%. In test [2], the EC50 is 0.045 µM and the Emax stood at 57%.

Regarding `CN(C)C(=O)c1ccc(N2CCC(CCCN(C)C(=O)[C@](O)(c3cc(F)cc(Cl)c3)C(F)(F)F)CC2)nc1Cl` [Example 1-12, (R)-2-chloro-6-(4-(3-(2-(3-chloro-5-fluorophenyl)-3,3,3-trifluoro-2-hydroxy-N-methylpropanamido)propyl)piperidin-1-yl)-N,N-dimethylnicotinamide], in test [1], the 50% effective concentration (EC50) came to 0.372 µM and the Emax was 23%. Also, in test [2], a half-maximal effect (EC50) was put at 0.013 µM and the Emax was found to be 78%.

For `CN(C)C(=O)c1ccc(N2CCC3(CC2)C[C@@H]3CCN(C)C(=O)[C@](O)(c2ccccc2)C(F)(F)F)cc1Cl` [Example 7-5, 2-chloro-N,N-dimethyl-4-((R)-1-(2-((R)-3,3,3-trifluoro-2-hydroxy-N-methyl-2-phenylpropanamido)ethyl)-6-azaspiro[2.5]octan-6-yl)benzamide], in test [1], the 50% effective concentration (EC50) is 0.381 µM and the Emax was 55%. For the same compound, in test [2], it took 0.011 µM to reach a half-maximal effect (EC50) and the Emax was 68%.

Take `CN(C)C(=O)c1ccc(N2CCC(CCCCN(C)C(=O)C(O)(c3ccccc3)C(F)(F)F)CC2)cc1Cl` (centres unmarked) [Example 4-11, 2-chloro-N,N-dimethyl-4-(4-(4-(3,3,3-trifluoro-2-hydroxy-N-methyl-2-phenylpropanamido)butyl)piperidin-1-yl)benzamide]: in test [1], the “LXR alpha IP (nM)” value is “No IP” and the Emax worked out at 0%. In addition, in test [2], the 50% effective concentration (EC50) worked out at 0.12 µM and the Emax is 40%.

For the origin of these results see US10961215B2, “N-aryl and N-heteroaryl piperidine derivatives as liver X receptor beta agonists, compositions, and their use” (Merck Sharp & Dohme Corp., priority 2016, dated 2021).
